Laboratory results taken from US20230039836A1, “AROMATIC SULPHONAMIDES DERIVATIVES THAT INHIBITS PDI A3, THEIR SYNTHESIS AND USE” (Uniwersytet Jagiellonski, priority 2020, published 2023).
≈ marks a conversion by molar mass, not a printed value. Like-named read-outs stand apart in the source and are kept apart here.

What was measured:
[1] = tested on: MDA-MB-231; assay: Sulforhodamine B antiproliferative assay, 72 h, normal and hypoxia; assay type: cell-based, human; details: 72-hour exposition
Description: (§1) Anticancer activity of PDI A1-inhibitors has been also tested in vitro in antiproliferative essay in normoxic and hypoxic conditions as well in estrogen-stimulated cancer cells. In the experiment, cells were seeded on 96-well plates (Sarstedt, Germany) in appropriate culture medium at a density of 10^5 cells/mL 24 h before adding the tested compounds. Cells were treated with each compound in four concentrations in the range 0.1-100 ug/mL. […] After 72 h of compound treatment at 37° C., 5 % CO2 humid atmosphere and in wo different oxygen level conditions: 21% - normal and <1% - hypoxia. In some experiments, the MDA-MB-231 and MCF-7 cells were seeded with or without 200 nM estradiol and after 24 h the tested compounds were added. A previously described sulforhodamine B antiproliferative assay was used with minor modifications (Skehan P et al., 1990). Briefly, cells were fixed with 50 µL/well of 50% (w/v) trichloroacetic acid (Avantor Performance Materials, Gliwice, Poland). After 1 h incubation, plates were washed several times with tap water and 50 µL of 0.4% (w/v) solution of sulforhodamine B (Sigma-Aldrich, Germany) in 1% (v/v) acetic acid (Avantor Performance Materials, Gliwice, Poland) was added to each well. After 30 min incubation at room temperature, unbound dye was washed out with 1% (v/v) acetic acid, whereas bound dye was solubilized with 10 mM unbuffered TRIS (Avantor Performance Materials, Gliwice, Poland) solution. The entire procedure was performed using a BioTek EL-406 washing station (BioTek Instruments, USA). After additional 30 min, absorbance was read using a Biotek Hybrid H4 reader (BioTek Instruments, USA) at 540 nm wavelength. MTT assay was used alternatively for HL-60 cell line and in the experiment in which estrogens are added (specified in the table legend). Absorbance was measured using a Biotek Hybrid H4 reader at 570 nm wavelength for MTT assay.
(§2) Compounds at each concentration were tested in triplicate in a single experiment and each experiment was repeated at least three times independently.
(§3) Results of in vitro antiproliferative effects are shown in Table 3 and Table 4 and are presented as mean IC50 ± SD calculated using the Prolab-3 system based on Cheburator 0.4 software.

[2] = tested on: MCF-7; assay: as above; assay type: cell-based, human; details: 72-hour exposition
Description: as §1, §2, §3

[3] = tested on: HT-29; assay: Sulforhodamine B antiproliferative assay, 72 h; assay type: cell-based, human; details: normal (21% of oxygen), 72-hour exposition
Description: as §1, §2, §3

[4] = tested on: MDA-MB-231; assay: MTT antiproliferative assay, 72 h, with or without estradiol; assay type: cell-based, human; details: for IC50: Homo sapiens, MDA-MB-231, 72 hours exposition, MTT
Description: as §1, §2, §3
(§4) Statistical analysis: Unpaired t test. *p<0.05 as compared to appropriate cells not pretreated with estradiol. MTT assay was used for antiproliferative activity assessment.

[5] = tested on: MCF-7; assay: as above; assay type: cell-based, human; details: 72 hours exposition; for IC50: Homo sapiens, MCF7, MTT
Description: as §1, §2, §3, §4

[6] = tested on: HT-29; assay: MTT antiproliferative assay, 72 h; assay type: cell-based; details: Homo sapiens, 72 hours exposition, read-out: IC50 [µg/ml] HT-29 normal
Description: as §1, §2, §3, §4

[7] = tested on: HL-60; assay: MTT antiproliferative assay, 72 h; assay type: cell-based; details: Homo sapiens, 72 hours exposition, read-out: IC50 [µg/ml] HL-60 normal
Description: as §1, §2, §3, §4

[8] = tested on: MCF-7 (human breast adenocarcinoma, estrogen-positive); assay: MTT antiproliferative assay, 48 h; assay type: cell-based; details: for IC50: Homo sapiens, MCF7, 48-hour exposition, read-out: Cytotoxicity, IC50, µM MCF-7
Description: (§5) About 2000-4000 cells per well (depending on line nature) were placed in 96-well plates and after 24 h compounds were added to the wells. Untreated cells were used as a control. The plates were incubated for 48 h, 37° C., 5% CO2. The number of surviving cells was determined using 3-(4,5-dimethylthiazol-2-yl)-2,5-diphenyltetrazolinium bromide (MTT). MTT-test: after incubating culture medium was removed and 200 µL fresh medium with 20 µL MTT (2 mg/mL in HBSS) was added in each well of the plate. After incubation (3 hr., 37° C., 5% CO2), the medium with MTT was removed and 200 µL DMSO were added at once to each sample. The samples were tested at 540 nm on Thermo Scientific Multiskan EX microplate photometer. The half-maximal inhibitory concentration (IC50) of each compound was calculated using Graph Pad Prism® 3.0.

[9] = tested on: MDA-MB-231 (human mammary breast adenocarcinoma); assay: MTT antiproliferative assay, 48 h; assay type: cell-based; details: for IC50: Homo sapiens, MDA-MB-231, 48-hour exposition, read-out: Cytotoxicity, IC50, µM MDA-MB-231
Description: as §5

[10] = tested on: HT-1080 (human fibrosarcoma); assay: MTT antiproliferative assay, 48 h; assay type: cell-based; details: 48-hour exposition, read-out: Cytotoxicity, IC50, µM HT-1080
Description: as §5

[11] = tested on: Caco-2 (human colon adenocarcinoma); assay: MTT antiproliferative assay, 48 h; assay type: cell-based; details: for IC50: Homo sapiens, Caco-2, 48-hour exposition, read-out: Cytotoxicity, IC50, µM CaCo-2
Description: as §5

[12] = target: T1, PDI A1 (Homo sapiens, UniProt P07237); assay: Insulin turbidometric assay, inhibition of PDI A1; assay type: biochemical; details: insulin reduction, turbidity at 650 nm, 60 min incubation at 37° C.; read-out: Inhibition of PDI A1 (EC 50)
T1 construct: purchased Mybiosource; host or cells: E. coli
T1 sequence (P07237 18-508, species assumed): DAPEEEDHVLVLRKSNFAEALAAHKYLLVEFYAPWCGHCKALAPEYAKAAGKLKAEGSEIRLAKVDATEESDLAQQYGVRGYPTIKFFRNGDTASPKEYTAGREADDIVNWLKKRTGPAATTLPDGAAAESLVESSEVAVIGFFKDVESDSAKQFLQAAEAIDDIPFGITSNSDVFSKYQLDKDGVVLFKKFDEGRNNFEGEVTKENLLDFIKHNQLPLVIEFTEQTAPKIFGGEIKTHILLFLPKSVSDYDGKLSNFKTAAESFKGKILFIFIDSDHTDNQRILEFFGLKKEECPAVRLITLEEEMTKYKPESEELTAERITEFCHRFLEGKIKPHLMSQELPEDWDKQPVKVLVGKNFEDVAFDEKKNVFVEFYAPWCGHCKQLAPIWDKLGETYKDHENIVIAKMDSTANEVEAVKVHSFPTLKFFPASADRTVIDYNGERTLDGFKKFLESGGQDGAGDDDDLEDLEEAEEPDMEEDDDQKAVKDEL
Description: The inhibitory effects compounds of invention on activity of PDI A1 was assess based on the insulin turbidometric assay. Enzymatic activity of PDIA1 was confirmed by measuring the turbidity increase at 650 nm due to insulin reduction. The assay mixture was prepared by addition 10 ug/ml PDIA1 (E.coli recombinant protein; Mybiosource), 0.1 mM phosphate buffer (pH7.6), 1 mM EDTA, 0.087 mM DTT and with or without tested compound and was incubated for 60 min, at 37° C. Reaction was started by addition insulin and DTT. Final concentration of insulin and DTT in assay mixture was 0.15 mM and 0.174 mM, respectively. Turbidity was detected at 650 nm against reference samples without PDI A1s. The measurements were performed at 650 nm using 120-s recordings.

[13] = 200 nM estradiol, read-out: IC50 [µg/ml] MDA-MB-231 + estradiol
[14] = not pretreated with estradiol, read-out: IC50 [µg/ml] MDA-MB-231 normal
[15] = 200 nM estradiol, read-out: IC50 [µg/ml] MCF-7 + estradiol
[16] = not pretreated with estradiol, read-out: IC50 [µg/ml] MCF-7 normal

EC50 [12] [µM]	melting point [°C]	SMILES	IC50 [8] [µM]	IC50 [9] [µM]	IC50 [10] [µM]	IC50 [11] [µM]	also measured
–	–	N.N.[Cl][Pt][Cl] [Cisplatin, reference compound]	–	–	–	–	IC50 [µg/ml] MDA-MB-231 hypoxia ([1]; hypoxia (<1% of oxygen)): 3.1 ± 0.9 µg/mL; IC50 [µg/ml] MDA-MB-231 normal ([1]; normal (21% of oxygen)): 3.2 ± 0.5 µg/mL; IC50 [µg/ml] MCF-7 hypoxia ([2]; hypoxia (<1% of oxygen)): 1.3 ± 0.5 µg/mL; IC50 [µg/ml] MCF-7 normal ([2]; normal (21% of oxygen)): 1.8 ± 0.3 µg/mL; IC50 [µg/ml] HT-29 normal [3]: 2.82 ± 0.6 µg/mL
–	–	CCCCCCc1ccc(S(=O)(=O)N2CC2C(=O)NC)cc1 (centres unmarked) [Compound C-3380, 1-(4-Hexylphenyl)sulfonyl-N-methyl-aziridine-2-carboxamide]	–	–	–	–	IC50 [4, 13]: 26.3 ± 2.5 µg/mL; IC50 [4, 14]: 26.1 ± 1 µg/mL (≈ 80.4 µM); Selectivity index (SI): IC50 of MCF-10A/ IC50 of MCF-7 [5]: 0.75; IC50 [5, 15]: 26.3 ± 4.3 µg/mL; IC50 [5, 16]: 25.5 ± 2.3 µg/mL (≈ 78.6 µM); IC50 [6]: 34.6 ± 2.2 µg/mL (≈ 107 µM); IC50 [7]: 5.3 ± 2.8 µg/mL (≈ 16.3 µM)
5.5	139 to 141	COC(=O)C1CN1S(=O)(=O)c1ccc2[nH]c(=O)ccc2c1 (centres unmarked) [Compound C-3350, Methyl 1-[(2-oxo-1H-quinolin-6-yl)sulfonyl]aziridine-2-carboxylate]	80 ± 8	136 ± 6	16 ± 5	49 ± 5	–
0.05	–	CCCCCCc1ccc(S(=O)(=O)N2CC2C(=O)OC)cc1 (centres unmarked) [Compound C-3287, Methyl 1-(4-hexylphenyl)sulfonylaziridine-2-carboxylate]	123 ± 17	–	–	–	IC50 [4, 13]: 23.8 ± 2.3 µg/mL; IC50 [4, 14]: 6.4 ± 0.8 µg/mL (≈ 19.7 µM); Change of antiproliferative activity towards MDA-MB-231 during simultaneous incubation with estradiol ([4]; with estradiol versus without): slight decrease of antiproliferative activity; Selectivity index (SI): IC50 of MCF-10A/ IC50 of MCF-7 [5]: 1.10; IC50 [5, 15]: 29.3 ± 4.1 µg/mL; IC50 [5, 16]: 31.3 ± 0.6 µg/mL (≈ 96.2 µM); IC50 [6]: 31.5 ± 4.9 µg/mL (≈ 96.8 µM); IC50 [7]: 0.5 ± 0.3 µg/mL (≈ 1.54 µM)
33	197 to 199	CN(C)c1ccc2c(S(=O)(=O)N3CC3C(N)=O)cccc2c1 (centres unmarked) [Compound C-3459, 1-[[6-(Dimethylamino)-1-naphthyl]sulfonyl]aziridine-2-carboxamide]	–	–	> 500	–	Cytotoxicity, IC50, µM MCF-7 ([8]; 48-hour exposition): n.e.; Cytotoxicity, IC50, µM MDA-MB-231 ([9]; 48-hour exposition): n.e.; Cytotoxicity, IC50, µM CaCo-2 ([11]; 48-hour exposition): n.e.
10.6	–	COC(=O)C1CN1S(=O)(=O)c1cccnc1 (centres unmarked) [Compound C-3559, Methyl 1-(3-pyridylsulfonyl)aziridine-2-carboxylate]	154 ± 25	128 ± 8	372 ± 23	260 ± 55	–
34	106 to 108	COC(=O)C1CN1S(=O)(=O)c1ccc([N+](=O)[O-])cc1 (centres unmarked) [Compound C-3212, Methyl 1-(4-nitrophenyl)sulfonylaziridine-2-carboxylate]	–	–	–	–	–
29	147 to 149	NC(=O)C1CN1S(=O)(=O)c1cccnc1 (centres unmarked) [Compound C-3562, 1-(3-pyridylsulfonyl)aziridine-2-carboxamide]	57 ± 5	24 ± 2	31 ± 2	36 ± 6	–
11.2	–	COC(=O)[C@@H]1CN1S(=O)(=O)c1ccc(C)cc1 (stereo partly drawn) [Compound C-3535, Methyl (2S)-1-(p-tolylsulfonyl)aziridine-2-carboxylate]	81	107 ± 11	84 ± 3	35 ± 7	–
> 200	139 to 141	NC(=O)C1CN1S(=O)(=O)c1ccc(N)cc1 (centres unmarked) [Compound C-3218, 1-(4-Aminophenyl)sulfonylaziridine-2-carboxamide]	137 ± 14	64 ± 5	200 ± 3	200 ± 1	–
6	–	COC(=O)[C@@H]1CN1S(=O)(=O)c1cccc2cc(N(C)C)ccc12 (stereo partly drawn) [Compound C-3548, Methyl (2S)-1-[[6-(dimethylamino)-1-naphthyl]sulfonyl]aziridine-2-carboxylate]	37 ± 3	57 ± 9	9.2 ± 1	45 ± 13	–
0.34	170 to 172	CNc1ccc2cc(S(=O)(=O)N3CC3C(=O)OC)ccc2c1Cl (centres unmarked) [Compound C-3393, Methyl 1-[[5-chloro-6-(methylamino)-2-naphthyl]sulfonyl]aziridine-2-carboxylate]	29 ± 3	32 ± 4	0.46 ± 0.04	35 ± 1	–
7.7	42 to 44	COC(=O)C1CN1S(=O)(=O)c1ccc2oc(=O)ccc2c1 (centres unmarked) [Compound C-3355, Methyl 1-(2-oxochromen-6-yl)sulfonylaziridine-2-carboxylate]	276 ± 9	247 ± 14	20 ± 1	39 ± 1	–
5	–	COC(=O)C1CN1S(=O)(=O)c1ccc(F)cc1F (centres unmarked) [Compound C-3353, Methyl 1-(2,4-difluorophenyl)sulfonylaziridine-2-carboxylate]	–	–	–	–	IC50 [4, 13]: 25.7 ± 1.9 µg/mL; IC50 [4, 14]: 24.2 ± 2.6 µg/mL (≈ 87.3 µM); Selectivity index (SI): IC50 of MCF-10A/ IC50 of MCF-7 [5]: 3.36; IC50 [5, 15]: 5.8 ± 1.3 µg/mL; IC50 [5, 16]: 6.2 ± 1.8 µg/mL (≈ 22.4 µM); IC50 [6]: 35.9 ± 1.3 µg/mL (≈ 129 µM); IC50 [7]: 2 ± 0.1 µg/mL (≈ 7.21 µM)

SMILES	EC50 [12] [µM]	melting point [°C]	IC50 [8] [µM]	IC50 [9] [µM]	IC50 [10] [µM]	IC50 [11] [µM]	also measured
COC(=O)C1CN1S(=O)(=O)c1ccc2c(C=O)c(N(C)C)ccc2c1 (centres unmarked) [Compound C-3390, Methyl 1-[[6-(dimethylamino)-5-formyl-2-naphthyl]sulfonyl]aziridine-2-carboxylate]	0.6	–	20 ± 0.3	18 ± 0.1	7.9 ± 0.9	11 ± 2	–
Cc1ccc(S(=O)(=O)N2CC2C#N)cc1 (centres unmarked) [Compound C-3314, 1-(p-Tolylsulfonyl)aziridine-2-carbonitrile]	4.1	–	206 ± 21	104 ± 3	4.5 ± 1	14 ± 0.8	–
CC(=O)C1CN1S(=O)(=O)c1ccc(C)cc1 (centres unmarked) [Compound C-3263, 1-[1-(p-Tolylsulfonyl)aziridin-2-yl]ethanone]	140	–	17 ± 0.2	9.1 ± 0.5	7.6 ± 0.2	29 ± 0.8	–
